According to patent US20250388565A1, “ESTROGEN RECEPTOR ALPHA DEGRADERS AND METHODS OF USE THEREOF” (Relay Therapeutics, Inc., priority 2022, published 2025):

Biological target: T1, ERα protein (HiBiT-tagged) in ESR1_HiBiT KI MCF7 cells (Homo sapiens, UniProt P03372)
T1 sequence (P03372 1-595): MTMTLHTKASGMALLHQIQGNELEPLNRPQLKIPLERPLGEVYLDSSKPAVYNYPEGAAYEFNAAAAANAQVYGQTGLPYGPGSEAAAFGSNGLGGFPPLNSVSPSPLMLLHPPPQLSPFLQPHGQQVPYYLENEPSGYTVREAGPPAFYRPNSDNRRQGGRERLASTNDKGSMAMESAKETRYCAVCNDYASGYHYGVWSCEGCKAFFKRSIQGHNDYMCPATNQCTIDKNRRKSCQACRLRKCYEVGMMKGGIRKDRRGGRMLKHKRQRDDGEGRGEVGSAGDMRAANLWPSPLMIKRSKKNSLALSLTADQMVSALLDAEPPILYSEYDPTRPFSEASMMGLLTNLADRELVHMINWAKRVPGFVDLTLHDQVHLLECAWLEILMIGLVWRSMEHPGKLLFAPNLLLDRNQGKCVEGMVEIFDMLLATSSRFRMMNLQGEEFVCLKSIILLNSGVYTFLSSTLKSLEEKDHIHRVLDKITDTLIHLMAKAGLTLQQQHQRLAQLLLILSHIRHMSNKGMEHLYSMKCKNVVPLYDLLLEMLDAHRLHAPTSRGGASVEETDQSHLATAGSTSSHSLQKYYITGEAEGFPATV
Experiment: Nano Glo HiBiT Lytic Degradation Assay
Type: cell-based
Details: 6 hours with compound, 14-point dose response 1:3, bell-shape curve fit, half-maximal effect of first Hill model, read-out: MCF7 ESR1 HiBiT - (DC50)
In short: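 Lytic Nano-Glo HiBiT luminescence quantified ERα remaining after a 6 h, 37° C compound exposure of MCF7 cells carrying endogenous HiBiT-tagged ESR1. Dosing used 14 threefold dilutions from a 10 mM DMSO stock (0.1% DMSO final), run in duplicate. Signals were corrected for cell-free background and expressed relative to DMSO, and DC50 came from a bell-shaped curve fit (first Hill model half-maximum).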

Row | DC50 | SMILES
1 | 0.45 nM | O=C1CCC(N2Cc3cc([C@H]4CCN(CC5CCN(c6ccc([C@@H]7c8ccc(O)cc8CC[C@@H]7c7ccccc7)cc6)CC5)C[C@H]4O)ccc3C2=O)C(=O)N1 (single isomer, unassigned) [II-108]
2 | ≥ 10000 nM | O=C1CC[C@H](N2Cc3cc(N4C[C@@H]5C[C@H]4CN5CC4CCN(c5ccc([C@H]6c7ccc(O)cc7CC[C@H]6c6ccccc6)cc5)CC4)ccc3C2=O)C(=O)N1 [II-8]
3 | ≥ 10000 nM | O=C1CC[C@H](N2Cc3cc(N4C[C@@H]5C[C@H]4CN5CC4CCN(c5ccc([C@@H]6c7ccc(O)cc7CC[C@@H]6c6ccccc6)cc5)CC4)ccc3C2=O)C(=O)N1 [II-7]
4 | 0.73 nM | Cc1cc(F)c([C@H]2CCc3cc(O)ccc3[C@H]2c2ccc(N3CCC(CN4CCN(c5ccc6c(c5)CN([C@H]5CCC(=O)NC5=O)C6=O)CC4)CC3)cc2)cc1F [II-75]
5 | 0.82 nM | O=C1CC[C@H](N2Cc3cc(N4CCN(CC5CCN(c6ccc([C@H]7c8ccc(O)cc8CC[C@H]7c7cccc(F)c7)cc6)CC5)CC4)ccc3C2=O)C(=O)N1 (single isomer, unassigned) [II-27]
6 | 2 nM | O=C1CCC(N2Cc3c(ccc(N4CCN(CC5CCN(c6ccc([C@@H]7c8ccc(O)cc8CC[C@@H]7c7ccccc7)cc6)CC5)CC4)c3F)C2=O)C(=O)N1 (single isomer, unassigned) [II-16]
7 | 0.13 nM | Cc1cc(F)cc(F)c1[C@H]1CCc2cc(O)ccc2[C@H]1c1ccc(N2CCC(CN3CCN(c4ccc5c(c4)CN([C@H]4CCC(=O)NC4=O)C5=O)CC3)CC2)cc1 [II-74]

Second part, the compound before the results:

Row | SMILES | DC50
8 | Cc1ccccc1[C@@H]1CC(F)(F)c2cc(O)ccc2[C@@H]1c1ccc(N2CCC(CN3CCN(c4ccc5c(c4)CN([C@H]4CCC(=O)NC4=O)C5=O)CC3)CC2)cc1 [Compound I-323, (S)-3-(5-(4-((1-(4-((1S,2R)-4,4-difluoro-6-hydroxy-2-(o-tolyl)-1,2,3,4-tetrahydronaphthalen-1-yl)phenyl)piperidin-4-yl)methyl)piperazin-1-yl)-1-oxoisoindolin-2-yl)piperidine-2,6-dione] | 33 nM
9 | O=C1CC[C@H](N2Cc3cc(N4CCN(CC5CCN(c6ccc([C@H]7c8ccc(O)cc8CO[C@H]7c7ccccc7F)cc6)CC5)CC4)ccc3C2=O)C(=O)N1 [Compound I-348, (S)-3-(5-(4-((1-(4-((3R,4S)-3-(2-fluorophenyl)-7-hydroxyisochroman-4-yl)phenyl)piperidin-4-yl)methyl)piperazin-1-yl)-1-oxoisoindolin-2-yl)piperidine-2,6-dione] | ≥ 10000 nM
10 | O=C1CC[C@H](N2Cc3cc(N4CCN(CC5CCN(c6ccc([C@H]7c8ccc(O)cc8C(F)(F)C[C@H]7c7ccccc7)nc6)CC5)CC4)ccc3C2=O)C(=O)N1 [Compound I-337, (S)-3-(5-(4-((1-(6-((1R,2R)-4,4-difluoro-6-hydroxy-2-phenyl-1,2,3,4-tetrahydronaphthalen-1-yl)pyridin-3-yl)piperidin-4-yl)methyl)piperazin-1-yl)-1-oxoisoindolin-2-yl)piperidine-2,6-dione] | ≥ 10000 nM
11 | O=C1CC[C@H](N2Cc3cc(N4CCN(CC5CCN(c6ccc([C@H]7c8ccc(O)cc8CC[C@H]7c7ccc8c(c7)CCCC8)cc6)CC5)CC4)ccc3C2=O)C(=O)N1 (single isomer, unassigned) [Compound I-60] | 1 nM
12 | Cc1cc(F)c([C@@H]2OCc3cc(O)ccc3[C@@H]2c2ccc(N3CCC(CN4CCN(c5ccc6c(c5)CN([C@H]5CCC(=O)NC5=O)C6=O)CC4)CC3)cc2)cc1F [Compound I-370, (S)-3-(5-(4-((1-(4-((3R,4S)-3-(2,5-difluoro-4-methylphenyl)-7-hydroxyisochroman-4-yl)phenyl)piperidin-4-yl)methyl)piperazin-1-yl)-1-oxoisoindolin-2-yl)piperidine-2,6-dione] | 3300 nM
13 | O=C1CC[C@H](N2Cc3cc(N4CCN(CC5CCN(c6ccc([C@@H]7c8ccc(C(F)(F)F)cc8CC[C@@H]7c7ccccc7)cc6)CC5)CC4)ccc3C2=O)C(=O)N1 [Compound I-46, (S)-3-(1-oxo-5-(4-((1-(4-((1R,2S)-2-phenyl-6-(trifluoromethyl)-1,2,3,4-tetrahydronaphthalen-1-yl)phenyl)piperidin-4-yl)methyl)piperazin-1-yl)isoindolin-2-yl)piperidine-2,6-dione] | ≥ 10000 nM
14 | Cc1cc(N2CCC3(CCN(CC4CCN(c5ccc([C@@H]6c7ccc(O)cc7CO[C@@H]6c6ccccc6)cc5)CC4)C3)CC2)ccc1N1CCC(=O)NC1=O [Compound I-392, 1-(4-(2-((1-(4-((3S,4R)-7-hydroxy-3-phenylisochroman-4-yl)phenyl)piperidin-4-yl)methyl)-2,8-diazaspiro[4.5]decan-8-yl)-2-methylphenyl)dihydropyrimidine-2,4 (1H,3H)-dione] | 0.13 nM
15 | O=C1CCC(c2cccc(N3CCC4C3CCN4CC3CCN(c4ccc([C@@H]5c6ccc(O)cc6CC[C@@H]5c5ccccc5)cc4)CC3)c2)C(=O)N1 (stereo in doubt) [Compound I-178, 3-(3-((3aS,6aS)-4-((1-(4-((1R,2S)-6-hydroxy-2-phenyl-1,2,3,4-tetrahydronaphthalen-1-yl)phenyl)piperidin-4-yl)methyl)hexahydropyrrolo[3,2-b]pyrrol-1 (2H)-yl)phenyl)piperidine-2,6-dione] | 3300 nM
16 | O=C1CC[C@H](N2Cc3cc(N4CCN(CC5CCN(c6ccc([C@H]7c8ccc(O)cc8CC[C@H]7c7ccccn7)cc6)CC5)CC4)ccc3C2=O)C(=O)N1 [Compound I-114, (3S)-3-[5-[4-[[1-[4-[(1S,2R)-6-hydroxy-2-(2-pyridyl)tetralin-1-yl]phenyl]-4-piperidyl]methyl]piperazin-1-yl]-1-oxo-isoindolin-2-yl]piperidine-2,6-dione] | ≥ 10000 nM
17 | CC[C@@H]1CCc2cc(O)ccc2[C@@H]1c1ccc(N2CCC(CN3CCN(c4ccc5c(c4)CN([C@H]4CCC(=O)NC4=O)C5=O)CC3)CC2)cc1 (single isomer, unassigned) [Compound I-112] | 0.14 nM
18 | COc1cccc([C@@H]2OCc3cc(O)ccc3[C@@H]2c2ccc(N3CCC(CN4CCN(c5ccc6c(c5)CN([C@H]5CCC(=O)NC5=O)C6=O)CC4)CC3)cc2)c1 [Compound I-374, (S)-3-(5-(4-((1-(4-((3R,4S)-7-hydroxy-3-(3-methoxyphenyl)isochroman-4-yl)phenyl)piperidin-4-yl)methyl)piperazin-1-yl)-1-oxoisoindolin-2-yl)piperidine-2,6-dione] | 8 nM
19 | O=C1CC[C@H](N2Cc3cc(N4CCN(CC5CCN(c6ccc([C@H]7c8ccc(O)cc8CO[C@H]7c7ccc8c(c7)CC8)cc6)CC5)CC4)ccc3C2=O)C(=O)N1 (single isomer, unassigned) [Compound I-364] | ≥ 10000 nM
20 | O=C1CC[C@H](N2Cc3cc(N4CCN(CC5CCN(c6ccc([C@@H]7c8ccc(O)cc8C(F)(F)C[C@@H]7c7ccc(F)cc7)cc6)CC5)CC4)ccc3C2=O)C(=O)N1 [Compound I-192, (S)-3-(5-(4-((1-(4-((1R,2S)-4,4-difluoro-2-(4-fluorophenyl)-6-hydroxy-1,2,3,4-tetrahydronaphthalen-1-yl)phenyl)piperidin-4-yl)methyl)piperazin-1-yl)-1-oxoisoindolin-2-yl)piperidine-2,6-dione] | 0.62 nM
21 | O=C1CC[C@H](N2Cc3cc(N4CCN(CC5CCN(c6ccc([C@H]7c8ccc(O)cc8CC[C@H]7C7CCC8(CC7)CC8)cc6)CC5)CC4)ccc3C2=O)C(=O)N1 [Compound I-145] | ≥ 10000 nM
22 | O=C1CC[C@@H](N2Cc3cc(N4CCN(CC5CCN(c6ccc([C@@H]7c8ccc(O)cc8C(F)(F)C[C@@H]7c7ccc(F)cc7)cc6)CC5)CC4)ccc3C2=O)C(=O)N1 [Compound I-310, (R)-3-(5-(4-((1-(4-((1R,2S)-4,4-difluoro-2-(4-fluorophenyl)-6-hydroxy-1,2,3,4-tetrahydronaphthalen-1-yl)phenyl)piperidin-4-yl)methyl)piperazin-1-yl)-1-oxoisoindolin-2-yl)piperidine-2,6-dione] | 5.74 nM
23 | O=C1CCC(n2ncc3cc(N4CCN(CC5CCN(c6ccc([C@@H]7c8ccc(O)cc8CC[C@@H]7c7ccccc7)cc6)CC5)CC4)ccc32)C(=O)N1 (some centres unmarked) [Compound I-302] | 2 nM
24 | O=C1CC[C@H](N2Cc3cc(N4CCN(CC5CCN(c6ccc([C@H]7c8ccc(O)cc8CO[C@H]7CC7CC7)cc6)CC5)CC4)ccc3C2=O)C(=O)N1 (single isomer, unassigned) [Compound I-231] | ≥ 10000 nM
25 | CC(C)C[C@H]1OCc2cc(O)ccc2[C@@H]1c1ccc(N2CCC(CN3CCN(c4ccc5c(c4)CN([C@H]4CCC(=O)NC4=O)C5=O)CC3)CC2)cc1 (single isomer, unassigned) [Compound I-223] | 10 nM
26 | O=C1CC[C@H](N2Cc3cc(N4CCN(CC5CCN(c6ccc([C@@H]7c8ccc(O)cc8CC[C@@]78CCc7ccccc78)cc6)CC5)CC4)ccc3C2=O)C(=O)N1 [Compound I-260] | 0.75 nM
